Data published in ChEMBL document CHEMBL2321689, “Design, synthesis and evaluation of novel heterodimers of donepezil and huperzine fragments as acetylcholinesterase inhibitors” (Bioorg Med Chem, 2013).
Activity calls are given as the source filed them. The rule behind the calls is not given here.

Experiments:
tissue or blood = conditions: Rattus norvegicus, Sprague-Dawley, Serum
Description: Inhibition of BuChE in Sprague-Dawley rat serum by Ellman's method

Acetylcholinesterase = biological target: T1, Acetylcholinesterase (Rattus norvegicus, UniProt P37136)
T1 sequence (P37136 whole entry): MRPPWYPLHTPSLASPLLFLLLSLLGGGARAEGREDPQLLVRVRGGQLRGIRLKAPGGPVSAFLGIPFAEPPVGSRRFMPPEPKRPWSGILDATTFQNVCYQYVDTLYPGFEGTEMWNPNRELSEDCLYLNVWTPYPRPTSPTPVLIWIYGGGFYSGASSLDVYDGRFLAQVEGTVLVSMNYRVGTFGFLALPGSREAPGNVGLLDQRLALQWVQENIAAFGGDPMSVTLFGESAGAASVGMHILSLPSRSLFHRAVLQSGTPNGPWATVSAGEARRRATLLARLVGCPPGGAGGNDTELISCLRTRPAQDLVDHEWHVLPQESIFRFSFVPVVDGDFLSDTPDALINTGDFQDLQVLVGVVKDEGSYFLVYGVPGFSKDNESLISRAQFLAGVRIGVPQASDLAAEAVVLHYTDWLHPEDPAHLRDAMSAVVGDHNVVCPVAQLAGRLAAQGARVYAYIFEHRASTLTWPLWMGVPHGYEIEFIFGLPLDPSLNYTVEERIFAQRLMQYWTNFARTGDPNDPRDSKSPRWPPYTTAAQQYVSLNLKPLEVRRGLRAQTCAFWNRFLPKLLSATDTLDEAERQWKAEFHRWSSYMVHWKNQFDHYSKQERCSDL
Description: Inhibition of AChE in Sprague-Dawley rat cortices using acetylthiocholine iodide as substrate by Ellman's method

Rattus norvegicus = species on record: Rattus norvegicus; assay: Inhibition of BuChE in Sprague-Dawley rat serum at 1 mM by Ellman's method; assay type: cell-free

Compound: COc1ccc(OCCCCCCN[C@H]2CCCc3[nH]c(=O)ccc32)cc1OC
- IC50 (tissue or blood): 17.7 µM
- IC50 (Acetylcholinesterase): 3.95 µM

Compound: COc1ccc(C(=O)NCCCN[C@H]2CCCc3[nH]c(=O)ccc32)cc1OC
- IC50 (tissue or blood): 139 µM
- IC50 (Acetylcholinesterase): 88 µM

Compound: COc1cc2c(cc1OC)C(=O)C(CCCCCCN[C@H]1CCCc3[nH]c(=O)ccc31)C2 (mixture of isomers)
- inhibition (Rattus norvegicus): inactive
- IC50 (Acetylcholinesterase): 0.037 µM

Compound: COc1cc2c(cc1OC)C(=O)C(CCCCCCCN[C@H]1CCCc3[nH]c(=O)ccc31)C2 (mixture of isomers)
- IC50 (tissue or blood): 413 µM
- IC50 (Acetylcholinesterase): 1.86 µM

Compound: COc1cc2c(cc1OC)C(=O)C(CCCCCN[C@H]1CCCc3[nH]c(=O)ccc31)C2 (mixture of isomers)
- inhibition (Rattus norvegicus): inactive
- IC50 (Acetylcholinesterase): 0.187 µM

Compound: COc1ccc(C(=O)OCCCCCCCCCN[C@H]2CCCc3[nH]c(=O)ccc32)cc1OC
- IC50 (tissue or blood): 308 µM
- IC50 (Acetylcholinesterase): 9.67 µM

Compound: COc1cc2c(cc1OC)C(=O)C(CCCCN[C@H]1CCCc3[nH]c(=O)ccc31)C2 (mixture of isomers)
- inhibition (Rattus norvegicus): inactive
- IC50 (Acetylcholinesterase): 0.009 µM

Compound: COc1cc2c(cc1OC)C(=O)C(CCCCN[C@@H]1CCCc3[nH]c(=O)ccc31)C2 (mixture of isomers)
- inhibition (Rattus norvegicus): inactive
- IC50 (Acetylcholinesterase): 0.53 µM

Compound: COc1cc2c(cc1OC)C(=O)C(CCCN[C@H]1CCCc3[nH]c(=O)ccc31)C2 (mixture of isomers)
- inhibition (Rattus norvegicus): inactive
- IC50 (Acetylcholinesterase): 41 µM

Compound: COc1ccc(C(=O)OCCCCCCCN[C@H]2CCCc3[nH]c(=O)ccc32)cc1OC
- IC50 (tissue or blood): 194 µM
- IC50 (Acetylcholinesterase): 8.2 µM

Compound: COc1ccc(C(=O)OCCCN[C@H]2CCCc3[nH]c(=O)ccc32)cc1OC
- IC50 (tissue or blood): 860 µM
- IC50 (Acetylcholinesterase): 162 µM

Compound: COc1cc2c(cc1OC)C(=O)C(CCCCCCCCCN[C@H]1CCCc3[nH]c(=O)ccc31)C2 (mixture of isomers)
- IC50 (tissue or blood): 678 µM
- IC50 (Acetylcholinesterase): 2.6 µM

Compound: COc1ccc(OCCCCCN[C@H]2CCCc3[nH]c(=O)ccc32)cc1OC
- IC50 (tissue or blood): 42 µM
- IC50 (Acetylcholinesterase): 0.59 µM

Compound: COc1ccc(C(=O)OCCCCN[C@H]2CCCc3[nH]c(=O)ccc32)cc1OC
- IC50 (tissue or blood): 15 µM
- IC50 (Acetylcholinesterase): 4.1 µM

Compound: C/C=C1\[C@H]2C=C(C)C[C@]1(N)c1ccc(=O)[nH]c1C2 [HUPERZINE A]
- IC50 (tissue or blood): 74 µM
- IC50 (Acetylcholinesterase): 0.065 µM

Compound: COc1ccc(C(=O)NCCCCCN[C@H]2CCCc3[nH]c(=O)ccc32)cc1OC
- IC50 (tissue or blood): 33 µM
- IC50 (Acetylcholinesterase): 12 µM

Compound: COc1ccc(C(=O)OCCCCCN[C@H]2CCCc3[nH]c(=O)ccc32)cc1OC
- IC50 (tissue or blood): 460 µM
- IC50 (Acetylcholinesterase): 7.2 µM
